Converted amounts (≈) assume the structure as drawn.
Tests used:
[1] = target: T1, DNA topoisomerase 1 (Homo sapiens) (UniProt P11387); assay: Inhibition of DNA topoisomerase 1
T1 sequence (whole entry): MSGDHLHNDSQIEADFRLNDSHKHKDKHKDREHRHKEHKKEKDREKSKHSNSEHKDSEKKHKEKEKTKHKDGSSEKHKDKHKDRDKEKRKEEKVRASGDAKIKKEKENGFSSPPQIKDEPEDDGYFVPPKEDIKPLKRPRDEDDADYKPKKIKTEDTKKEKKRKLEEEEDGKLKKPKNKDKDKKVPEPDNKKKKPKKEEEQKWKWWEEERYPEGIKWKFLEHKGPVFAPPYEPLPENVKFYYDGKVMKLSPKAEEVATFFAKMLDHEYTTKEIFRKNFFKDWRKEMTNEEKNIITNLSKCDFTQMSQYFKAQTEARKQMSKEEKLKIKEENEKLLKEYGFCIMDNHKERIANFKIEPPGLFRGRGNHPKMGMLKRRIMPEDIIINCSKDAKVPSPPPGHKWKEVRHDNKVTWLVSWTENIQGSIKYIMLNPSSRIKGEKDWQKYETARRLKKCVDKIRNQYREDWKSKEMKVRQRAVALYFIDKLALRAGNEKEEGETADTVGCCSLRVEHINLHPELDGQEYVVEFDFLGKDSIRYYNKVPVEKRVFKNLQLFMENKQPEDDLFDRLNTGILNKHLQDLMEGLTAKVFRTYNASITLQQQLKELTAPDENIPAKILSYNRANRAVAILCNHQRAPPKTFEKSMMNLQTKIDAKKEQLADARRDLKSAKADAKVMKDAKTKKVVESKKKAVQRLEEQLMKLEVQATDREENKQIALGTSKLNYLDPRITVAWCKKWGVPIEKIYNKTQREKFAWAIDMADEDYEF

KB [2] = assay: Cytotoxicity against human KB cells at 10 ug/ml; assay type: functional
L1210 [3] = assay: Cytotoxicity against mouse L1210 cells at 10 ug/ml; assay type: functional
L1210 [4] = assay: Cytotoxicity against mouse L1210 cells; assay type: functional, cell-based
KB [5] = assay: Cytotoxicity against human KB cells; assay type: functional, cell-based

Structure (SMILES) | MIC [1] | Activity (KB [2]) | Activity (L1210 [3]) | IC50 (L1210 [4]) | IC50 (KB [5])
C[C@@]12CC[C@H](O)[C@@H]3COC(=C31)C(=O)c1cc3c(cc12)C(O)CCC3=O (some centres not stated) [XESTOSAPROL A] | 12.5 µg/mL (≈ 36.7 µM) | 30.1% | 34.9% |  | 
C[C@@]12CCC(=O)c3coc(c31)C(=O)c1cc3c(O)ccc(OS(=O)(=O)[O-])c3cc12.[Na+] [HALENAQUINOL SULFATE SODIUM] | > 50 µg/mL | 12.2% | 22.4% |  | 
C[C@@]12CCCc3coc(c31)C(=O)c1cc3c(cc12)C(=O)C=CC3=O [XESTOQUINONE] | 2 µg/mL (≈ 6.28 µM) |  |  | 0.17 µg/mL (≈ 0.534 µM) | 1.7 µg/mL (≈ 5.34 µM)
C[C@@]12CC[C@H](O)[C@@H]3COC(=C31)C(=O)c1cc3c(cc12)C(=O)CCC3O (some centres not stated) | 2.5 µg/mL (≈ 7.34 µM) | 9.8% | 14.5% |  | 
C[C@@]12CCCc3coc(c31)C(=O)c1cc3c(O)ccc(OS(=O)(=O)[O-])c3cc12.[Na+] [XESTOQUINOL SULFATE SODIUM] | 10 µg/mL |  | 25.4% |  | 
C[C@@]12CCC(=O)c3coc(c31)C(=O)c1cc3c(cc12)C(=O)C=CC3=O [HELENAQUINONE] | 0.4 µg/mL (≈ 1.2 µM) |  |  | 1.6 µg/mL (≈ 4.81 µM) | 3.1 µg/mL (≈ 9.33 µM)

From ChEMBL document CHEMBL1149726, “New Pentacyclic Compounds from the Okinawan Marine Sponge Xestospongia sapra” (J Nat Prod, 1992)
